Laboratory results as given in US20250257051A1, “SUBSTITUTED PYRIMIDINE COMPOUNDS AS TYK2 INHIBITORS” (1910 Genetics Inc., priority 2022, published 2025).
pKd: −log10 of the molar value. Structures can show the parent of a compound that is named as a salt. Where two headings read alike, the source gives them in different places.

Target: human TYK2 (JH2domain-pseudokinase) (Homo sapiens (Human), UniProt P29597)
Experiment: TYK2 JH2 Domain Binding Assay (KINOMEscan competition binding)
Conditions: read-out: TYK JH2 (Kd)
Summary of the method: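 Competition binding of HEK293-expressed, DNA-tagged TYK2 JH2 (G556–D888)-NFkB fusion in crude extract against immobilized ligand, 1 h at room temperature, 0.9% DMSO. Bead-bound kinase quantified by qPCR; Kd from 11-point 3-fold series (top 30,000 nM), duplicate, Hill fit with slope −1.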

[1] = KINOMEscan, 11-point 3-fold dilution, top concentration 30,000 nM, Kd measurements in duplicate
[2] = Table 4: pyrimidinyl compound of Formula I versus compounds with a different heteroaryl core

Sequence of human TYK2 (JH2domain-pseudokinase) (P29597 556-888): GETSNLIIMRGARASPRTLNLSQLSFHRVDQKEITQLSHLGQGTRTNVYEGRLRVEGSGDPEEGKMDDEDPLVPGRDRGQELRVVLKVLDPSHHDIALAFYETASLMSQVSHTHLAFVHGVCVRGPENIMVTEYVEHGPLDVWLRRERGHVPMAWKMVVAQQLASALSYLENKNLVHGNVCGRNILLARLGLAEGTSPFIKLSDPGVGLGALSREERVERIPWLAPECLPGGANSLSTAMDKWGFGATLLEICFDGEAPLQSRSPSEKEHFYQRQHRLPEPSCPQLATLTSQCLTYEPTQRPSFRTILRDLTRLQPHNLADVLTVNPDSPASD

Row | Structure (SMILES) | pKd [1] | pKd [2]
1 | COc1c(Nc2nc(N3CCCNCC3)ncc2C(N)=O)cccc1-c1ncc(F)cn1 [Compound 73, 2-(1,4-diazepan-1-yl)-4-((3-(5-fluoropyrimidin-2-yl)-2-methoxyphenyl)amino)pyrimidine-5-carboxamide Hydrochloride] | 6.82 | 
2 | CNC(=O)c1cnc(N2CCCNCC2)nc1Nc1cccc(-c2ncc(F)cn2)c1OC [Compound 74, 2-(1,4-diazepan-1-yl)-4-((3-(5-fluoropyrimidin-2-yl)-2-methoxyphenyl)amino)-N-methylpyrimidine-5-carboxamide Hydrochloride] | 6.10 | 
3 | CNC(=O)c1cnc(N2CCCN(C(C)=O)CC2)nc1Nc1ccccc1S(C)(=O)=O [Compound 75, 2-(4-acetyl-1,4-diazepan-1-yl)-N-methyl-4-((2-(methylsulfonyl)phenyl)amino)pyrimidine-5-carboxamide] | 5.89 | 
4 | CNC(=O)c1cnc(N2CCN(C(C)=O)CC2C)nc1Nc1ccccc1S(C)(=O)=O (stereo not shown) [Compound 76, 2-(4-acetyl-2-methylpiperazin-1-yl)-N-methyl-4-((2-(methylsulfonyl)phenyl)amino)pyrimidine-5-carboxamide] | 6.68 | 
5 | CNC(=O)c1cnc(N2CCCN(C(C)=O)CC2)nc1Nc1cccc(-c2ncc(F)cn2)c1OC [Compound 77, 2-(4-acetyl-1,4-diazepan-1-yl)-4-((3-(5-fluoropyrimidin-2-yl)-2-methoxyphenyl)amino)-N-methylpyrimidine-5-carboxamide] | 6.77 | 
6 | CNC(=O)c1cnc(N2CCC(C(=O)NC)C2)nc1Nc1ccc(C2CC2)nc1 (stereo not shown) [drawing 147] |  | 6.77
7 | CNC(=O)c1cnc(N2CCC(C(=O)NC)C2)cc1Nc1ccc(C2CC2)nc1 (stereo not shown) [reference compound] |  | 5.00
8 | CNC(=O)c1nnc(N2CCC(C(=O)NC)C2)cc1Nc1ccc(C2CC2)nc1 (stereo not shown) [reference compound] |  | 4.51

Further compounds by rising pKd [1], results first:

Row | pKd [1] | pKd [2] | Structure (SMILES)
9 | 5.35 |  | CNC(=O)c1cnc(N2CCCN(C(=O)OC(C)(C)C)CC2)nc1Nc1cccc(-c2ncc(F)cn2)c1OC [Compound 72, Tert-Butyl 4-(4-((3-(5-fluoropyrimidin-2-yl)-2-methoxyphenyl)amino)-5-(methylcarbamoyl)pyrimidin-2-yl)-1,4-diazepane-1-carboxylate]
10 | 5.77 |  | CS(=O)(=O)c1ccccc1Nc1nc(N2CCCNCC2)ncc1C(N)=O [Compound 79, 2-(1,4-diazepan-1-yl)-4-((2-(methylsulfonyl)phenyl)amino)pyrimidine-5-carboxamide hydrochloride]
11 | 6.02 |  | CC(=O)N1CCCN(c2ncc(C(N)=O)c(Nc3ccccc3S(C)(=O)=O)n2)CC1 [Compound 80, 2-(4-acetyl-1,4-diazepan-1-yl)-4-((2-(methylsulfonyl)phenyl)amino)pyrimidine-5-carboxamide]
12 | 6.43 |  | COc1c(Nc2nc(N3CCCN(C(C)=O)CC3)ncc2C(N)=O)cccc1-c1ncc(F)cn1 [Compound 81, 2-(4-acetyl-1,4-diazepan-1-yl)-4-((3-(5-fluoropyrimidin-2-yl)-2-methoxyphenyl)amino)pyrimidine-5-carboxamide]
13 | 6.48 |  | CS(=O)(=O)c1ccccc1Nc1nc(N2CCC(C(=O)O)CC2)ncc1C(N)=O [Compound 78, 1-(5-carbamoyl-4-((2-(methylsulfonyl)phenyl)amino)pyrimidin-2-yl)piperidine-4-carboxylic Acid]
